The source of these data is patent publication US9765087B2, “Benzimidazole derivatives” (ENANTA PHARMACEUTICALS, INC., priority 2009, dated 2017).

Where only a bound is given, the exact number is not on record here.

The subject of the first assay is HCV 1b genotype replicon. Put plainly: HCV replicon assay (qRT-PCR or luciferase), genotype 1b. Format: cell-based. As to conditions: Hepatitis C virus, Table 11, qRT-PCR or luciferase assay, read-out: Genotype-1b replicon EC50 Range. In short, it runs like this:
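Genotype 1b subgenomic replicon Huh-luc/neo-ET cells (7,000/well) treated with compound for 72 h at 37 °C, 0.2% DMSO final; replication read by firefly luciferase. EC50 alternatively from qRT-PCR of HCV RNA normalized to GAPDH; cytotoxicity by MTS.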
As to `COC(=O)N[C@H](C(=O)N1CCC[C@H]1c1nc2cc(-c3ccc4cc(-c5c[nH]c([C@@H]6CCCN6C(=O)[C@@H](NC(=O)OC)[C@@H](C)OC)n5)ccc4c3)ccc2[nH]1)C(C)C` [Example 464], the EC50 was < 1 nM.

Consider `COC(=O)N[C@H](C(=O)N1CCC[C@H]1c1nc2cc(C#Cc3ccc(-c4c[nH]c([C@@H]5CCCN5C(=O)[C@@H](NC(=O)OC)C(C)C)n4)cc3)ccc2[nH]1)c1ccccc1` [Example 509], for which the EC50 was < 1 nM.

`CCOC(=O)N[C@H](C(=O)N1CCC[C@H]1c1nc2cc(C#Cc3ccc(-c4c[nH]c([C@@H]5CCCN5C(=O)[C@@H](NC(=O)OC)C(C)C)n4)cc3)ccc2[nH]1)C(C)C` [Example 481]: the EC50 is < 1 nM.

Regarding `COC(=O)N[C@@H](C(=O)N1CCC[C@H]1c1nc2ccc(CCc3ccc(-c4cnc([C@@H]5CCCN5C(=O)[C@H](NC(=O)OC)c5ccccc5)o4)cc3)cc2[nH]1)c1ccccc1` [Example 534], the EC50 is < 1 nM.

The test system of the next assay is HCV 1a genotype replicon. Put plainly: HCV replicon assay (qRT-PCR or luciferase), genotype 1a. As to conditions: Hepatitis C virus, Table 12, numeric values, read-out: 1a EC50. The assay is classed as cell-based. Here is the method: HCV replicon cell lines (kindly provided by R. Bartenschlager) isolated from colonies as described by Lohman et. al. (Lohman et al. (1999) Science 285: 110-113, expressly incorporated by reference in its entirety) and used for all experiments. The HCV replicon has the nucleic acid sequence set forth in EMBL Accession No.: AJ242651, the coding sequence of which is from nucleotides 1801 to 8406.
These cell lines were maintained at 37° C., 5% CO2, 100% relative humidity in DMEM (Cat#11965-084, Invitrogen), with 10% fetal calf serum (“FCS”, Invitrogen), 1% non-essential amino acids (Invitrogen), 1% of Glutamax (Invitrogen), 1% of 100× penicillin/streptomycin (Cat#15140-122, Invitrogen) and Geneticin (Cat#10131-027, Invitrogen) at 0.75 mg/ml or 0.5 mg/ml for 11-7 and Huh-luc/neo-ET cells, respectively.
EC50 values of single agent compounds and combinations were determined by HCV RNA detection using quantitative RT-PCR, according to the manufacturer's instructions, with a TAQMAN® One-Step RT-PCR Master Mix Reagents Kit (Cat#AB 4309169, Applied Biosystems) on an ABI Model 7500 thermocycler. The TaqMan primers used for detecting and quantifying HCV RNA were obtained from Integrated DNA Technologies. HCV RNA was normalized to GAPDH RNA levels in drug-treated cells, which is detected and quantified using the Human GAPDH Endogenous Control Mix (Applied Biosystems, AB 4310884E). Total cellular RNA is purified from 96-well plates using the RNAqueous 96 kit (Ambion, Cat# AM1812). Chemical agent cytotoxicity is evaluated using an MTS assay according to the manufacturer's directions (Promega).
Since clinical drug resistance often develops in viral infections following single agent therapies, there is a need to assess the additive, antagonistic, or synergistic properties of combination therapies. We used the HCV replicon system to assess the potential use of the compound of the present invention or in combination therapies with Interferon alpha, cyclosporine analogs and inhibitors targeting other HCV proteins. The acute effects of a single or combinations of drugs are studied in the “Huh-luc/neo-ET” replicon with each chemical agent titrated in an X or Y direction in a 6 point two-fold dilution curve centered around the EC50 of each drug. Briefly, replicon cells are seeded at 7,000 cells per well in 90 ul DMEM (without phenol red, Invitrogen Cat.#31053-036) per well with 10% FCS, 1% non-essential amino acids, 1% of Glutamax and 1% of 100× penicillin/streptomycin and incubated overnight at 37° C., 5% CO2, 100% relative humidity. 16-20 h after seeding cells, test compounds previously solubilized and titrated in dimethyl sulfoxide (“DMSO”) from each X plate and Y plate are diluted 1:100 in DMEM (without phenol red, Invitrogen Cat.#31053-036) with 10% FCS, 1% non-essential amino acids, 1% of Glutamax and 1% of 100× penicillin/streptomycin and added directly to the 96-well plate containing cells and growth medium at a 1:10 dilution for a final dilution of compound and DMSO of 1:1000 ([…] final concentration). Drug treated cells are incubated at 37° C., 5% CO2, 100% relative humidity for 72 hours before performing a luciferase assay using 100 ul per well BriteLite Plus (Perkin Elmer) according to the manufacturer's instructions. Data analysis utilizes the method published by Prichard and Shipman (Antiviral Research, 1990. 14:181-205). Using this method, the combination data are analyzed for antagonistic, additive, or synergistic combination effects across the entire combination surface created by the diluted compounds in combination.
The compounds of the present invention can be effective against the HCV 1b genotype. It should also be understood that the compounds of the present invention can inhibit multiple genotypes of HCV. In one embodiment compound of the present invention are active against the 1a, 1b, 2a, 2b, 3a, 4a, and 5a genotypes. […] EC50 ranges against HCV 1b and 1a are as follows: A>10 nM; B1-10 nM; C<1 nM.
Turning to `COC(=O)N[C@H](C(=O)N1CC2(CC2)C[C@H]1c1nc2ccc(C#Cc3ccc(-c4cnc([C@@H]5CCCN5C(=O)[C@H](NC(=O)OC)c5cccs5)[nH]4)cc3)cc2[nH]1)C(C)C` [Example 663], the EC50 amounted to 0.295 nM.

The same assay, now with this note: Hepatitis C virus, Table 12, range class, read-out: 1a EC50 Range.
As for `COC(=O)N[C@H](C(=O)N1CCC[C@H]1c1nc(-c2ccc(C#Cc3ccc4[nH]c([C@@H]5C[C@]6(CCCO6)CN5C(=O)[C@@H](NC(=O)OC)C(C)C)nc4c3)cc2)c[nH]1)C(C)C` [Example 557], the EC50 fell in the range of 1 to 10 nM.

On to `COC(=O)N[C@H](C(=O)N1CC2(CC2)C[C@H]1c1nc(-c2cccnc2)c(-c2ccc(C#Cc3ccc4nc([C@@H]5CC6(CC6)CN5C(=O)[C@@H](NC(=O)OC)C(C)C)[nH]c4c3)cc2)[nH]1)C(C)C` [Example 662], for which the EC50 is < 1 nM.

On to `COC(=O)N[C@H](C(=O)N1CC2(CC2)C[C@H]1c1ncc(-c2ccc(C#Cc3ccc4nc([C@@H]5CC6(CC6)CN5C(=O)[C@@H](NC(=O)OC)[C@@H](C)OC)[nH]c4c3)cc2)[nH]1)C(C)C` [Example 589], for which the EC50 is < 1 nM.

Consider `COC(=O)N[C@H](C(=O)N1CC2(CC2)C[C@H]1c1nc2ccc(C#Cc3ccc(-c4cnc([C@@H]5CCCN5C(=O)[C@H](NC(=O)OC)[C@H](C)c5ccccc5)[nH]4)cc3)cc2[nH]1)C(C)C` [Example 604], for which the 50% effective concentration (EC50) was > 10 nM.

For `COC(=O)N[C@H](C(=O)N1CC2(CC2)C[C@H]1c1nc(-c2ccc(C#Cc3ccc4[nH]c([C@@H]5CC6(CC6)CN5C(=O)[C@@H](NC(=O)OC)C(C)C)nc4c3)cc2)c(-c2ccncc2)[nH]1)C(C)C` [Example 593], the EC50 was < 1 nM.

Take `COC(=O)N[C@H](C(=O)N1CC2(CC2)C[C@H]1c1ncc(-c2ccc(C#Cc3ccc4nc([C@@H]5CC6(CC6)CN5C(=O)[C@H](NC(=O)OC)[C@H](C)c5ccccc5)[nH]c4c3)cc2)[nH]1)C(C)C` [Example 601]: the EC50 was > 10 nM.

With `CC(C)[C@H](NC(=O)OC1CCC1)C(=O)N1CC2(CC2)C[C@H]1c1ncc(-c2ccc(C#Cc3ccc4nc([C@@H]5CC6(CC6)CN5C(=O)[C@@H](NC(=O)OC5CCC5)C(C)C)[nH]c4c3)cc2)[nH]1` [Example 576], the EC50 is > 10 nM.

As to `COC(=O)N[C@H](C(=O)N1CC2(CC2)C[C@H]1c1nc2ccc(C#Cc3ccc(-c4cnc([C@@H]5CCCN5C(=O)[C@H](NC(=O)OC)c5ccc(F)cc5)[nH]4)cc3)cc2[nH]1)C(C)C` [Example 664], the EC50 was < 1 nM.

On to `COC(=O)N[C@H](C(=O)N1CC2(CC2)C[C@H]1c1ncc(-c2ccc(C#Cc3ccc4nc([C@@H]5CC6(CC6)CN5C(=O)[C@H](NC(=O)OC)c5cccs5)[nH]c4c3)cc2)[nH]1)C(C)C` [Example 582], for which the EC50 is < 1 nM.

For `COC(=O)N[C@H](C(=O)N1CC2(CC2)C[C@H]1c1nc2ccc(C#Cc3ccc(-c4cnc([C@@H]5CCCN5C(=O)[C@H](NC(=O)OC)c5ccsc5)[nH]4)cc3)cc2[nH]1)C(C)C` [Example 596], the EC50 is < 1 nM.

Take `COC(=O)N[C@H](C(=O)N1CC2(CC2)C[C@H]1c1nc(-c2ccc(C#Cc3ccc4[nH]c([C@@H]5CC6(CC6)CN5C(=O)[C@@H](NC(=O)OC)C(C)C)nc4c3)cc2)c(Br)[nH]1)C(C)C` [Example 657]: the EC50 is < 1 nM.

Take `COCC(COC)[C@H](NC(=O)OC)C(=O)N1CC2(CC2)C[C@H]1c1nc2ccc(C#Cc3ccc(-c4cnc([C@@H]5CC6(CC6)CN5C(=O)[C@@H](NC(=O)OC)C(C)C)[nH]4)cc3)cc2[nH]1` [Example 670]: the EC50 was < 1 nM.

As for `COC(=O)N[C@H](C(=O)N1C[C@@H](CF)C[C@H]1c1ncc(-c2ccc(C#Cc3ccc4nc([C@@H]5C[C@@]6(CCCO6)CN5C(=O)[C@@H](NC(=O)OC)C(C)C)[nH]c4c3)cc2)[nH]1)C(C)C` [Example 566], the EC50 was < 1 nM.

For the compound `COC(=O)N[C@H](C(=O)N1CCC[C@H]1c1ncc(-c2ccc(C#Cc3ccc4nc([C@@H]5C[C@@H](C6CC6)CN5C(=O)[C@@H](NC(=O)OC)C(C)C)[nH]c4c3)cc2)[nH]1)C(C)C` [Example 572], the EC50 was < 1 nM.

For the compound `COC(=O)N[C@H](C(=O)N1CC2(CC2)C[C@H]1c1ncc(-c2ccc(C#Cc3ccc4nc([C@@H]5CC6(CC6)CN5C(=O)[C@H](NC(=O)OC)c5ccsc5)[nH]c4c3)cc2)[nH]1)C(C)C` [Example 581], the EC50 was < 1 nM.

Turning to `COC(=O)N[C@H](C(=O)N1CCC[C@H]1c1nc(-c2ccc3cc(-c4ccc5[nH]c([C@@H]6CC7(CC7)CN6C(=O)[C@@H](NC(=O)OC)C(C)C)nc5c4)cc(F)c3c2)c[nH]1)C(C)C` [Example 608], the EC50 was < 1 nM.

Turning to `COC(=O)N[C@@H](C(=O)N1CC2(CC2)C[C@H]1c1ncc(-c2ccc(C#Cc3ccc4nc([C@@H]5CC6(CC6)CN5C(=O)[C@H](NC(=O)OC)c5ccc(Cl)cc5)[nH]c4c3)cc2)[nH]1)c1ccc(Cl)cc1` [Example 611], the EC50 was > 10 nM.

As to `COC(=O)N[C@H](C(=O)N1CC2(CC2)C[C@H]1c1nc2ccc(C#Cc3ccc(-c4cnc([C@@H]5CCCN5C(=O)[C@H](NC(=O)OC)c5ccco5)[nH]4)cc3)cc2[nH]1)C(C)C` [Example 682], the EC50 is < 1 nM.

For the compound `COC(=O)N[C@@H](CCCCNC(N)=O)C(=O)N1CCC[C@H]1c1nc(-c2ccc(C#Cc3ccc4[nH]c([C@@H]5CC6(CC6)CN5C(=O)[C@@H](NC(=O)OC)C(C)C)nc4c3)cc2)c[nH]1` [Example 620], the EC50 is < 1 nM.

As for `COC(=O)N[C@H](C(=O)N1CC2(CC2)C[C@H]1c1ncc(-c2ccc(C#Cc3ccc4nc([C@@H]5CC6(CC6)CN5C(=O)[C@@H](NC(=O)OC)c5ccccc5)[nH]c4c3)cc2)[nH]1)c1ccccc1` [Example 609], the EC50 lay within 1 to 10 nM.

On to `CC[C@@H](C)[C@H](NC(=O)OC)C(=O)N1CCC[C@H]1c1ncc(-c2ccc(C#Cc3ccc4nc([C@@H]5CC6(CC6)CN5C(=O)[C@@H](NC(=O)OC)C(C)C)[nH]c4c3)cc2)[nH]1` [Example 605], for which the EC50 was < 1 nM.

The assay is the same for the next values; noted with them: Hepatitis C virus, read-out: 1a EC50 Range, Table 12, range class.
Turning to `COC(=O)N[C@H](C(=O)N1C[C@]2(CNC(=O)O2)C[C@H]1c1ncc(-c2ccc(C#Cc3ccc4nc([C@@H]5CC6(CC6)CN5C(=O)[C@@H](NC(=O)OC)C(C)C)[nH]c4c3)cc2)[nH]1)C(C)C` [Example 617], the EC50 was in the range of 1 to 10 nM.
